system: GM1 production in Jurkat cells; assay: cells; type: cell-based; details: Homo sapiens, Jurkat, 72 h

SMILES | IC50 [nM]
CC1(C)CC(NC(=O)O[C@@H]2CN3CCC2CC3)c2ccc(-c3ccccc3OC(F)(F)F)cc21 (stereo partly drawn) [Example 403, (S)-quinuclidin-3-yl (3,3-dimethyl-5-(2-(trifluoromethoxy)phenyl)-2,3-dihydro-1H-inden-1-yl)carbamate] | 85.3
COc1ccc2cc(-c3ccc4c(c3)CC(C)(C)C4NC(=O)O[C@@H]3CN4CCC3CC4)ccc2c1 (stereo partly drawn) [Example 189, (S)-quinuclidin-3-yl (5-(6-methoxynaphthalen-2-yl)-2,2-dimethyl-2,3-dihydro-1H-inden-1-yl)carbamate] | 23
O=C(NC1CCc2ccc(-c3ccc(C(F)(F)F)cc3)cc21)O[C@@H]1CN2CCC1CC2 (stereo partly drawn) [Example 27, (S)-quinuclidin-3-yl (6-(4-(trifluoromethyl)phenyl)-2,3-dihydro-1H-inden-1-yl)carbamate] | 35.7
CCCOc1cccc(-c2ccc3c(c2)CC(C)(C)C3NC(=O)O[C@@H]2CN3CCC2CC3)c1 (stereo partly drawn) [Example 199, (S)-quinuclidin-3-yl (2,2-dimethyl-5-(3-propoxyphenyl)-2,3-dihydro-1H-inden-1-yl)carbamate] | 5.5
CCCOc1ccc(-c2ccc3c(c2)CC(CC)(CC)C3NC(=O)O[C@@H]2CN3CCC2CC3)cc1 (stereo partly drawn) [Example 285, (S)-quinuclidin-3-yl (2,2-diethyl-5-(4-propoxyphenyl)-2,3-dihydro-1H-inden-1-yl)carbamate] | 3.7
CC1(C)Cc2cc(-c3cccc(OCCN4CCOCC4)c3)ccc2C1NC(=O)O[C@@H]1CN2CCC1CC2 (stereo partly drawn) [Example 114, (S)-quinuclidin-3-yl (2,2-dimethyl-5-(3-(2-morpholinoethoxy)phenyl)-2,3-dihydro-1H-inden-1-yl)carbamate] | 33.7
O=C(NC1c2ccc(-c3cccc(Cl)c3)cc2CC12CC2)O[C@@H]1CN2CCC1CC2 (stereo partly drawn) [Example 393, (S)-quinuclidin-3-yl (5′-(3-chlorophenyl)-1′,3′-dihydrospiro[cyclopropane-1,2′-inden]-1′-yl)carbamate] | 54.9
CCC1(CC)Cc2cc(-c3cccc(N(C)C)c3)ccc2C1NC(=O)O[C@@H]1CN2CCC1CC2 (stereo partly drawn) [Example 302, (S)-quinuclidin-3-yl (5-(3-(dimethylamino)phenyl)-2,2-diethyl-2,3-dihydro-1H-inden-1-yl)carbamate] | 4
Cc1ccc(-c2ccc3c(c2)CC(C)(C)C3NC(=O)O[C@@H]2CN3CCC2CC3)c(F)c1 (stereo partly drawn) [Example 233, (S)-quinuclidin-3-yl (5-(2-fluoro-4-methylphenyl)-2,2-dimethyl-2,3-dihydro-1H-inden-1-yl)carbamate] | 23.3
CC(C)c1cccc(-c2cc3c(cc2F)C(NC(=O)O[C@@H]2CN4CCC2CC4)C(C)(C)C3)c1 (stereo partly drawn) [Example 373, (S)-quinuclidin-3-yl (6-fluoro-5-(3-isopropylphenyl)-2,2-dimethyl-2,3-dihydro-1H-inden-1-yl)carbamate] | 31.2
COc1cc2c(cc1-c1cccc(C(C)(C)C)c1)CC(C)(C)C2NC(=O)O[C@@H]1CN2CCC1CC2 (stereo partly drawn) [Example 337, (S)-quinuclidin-3-yl (5-(3-(tert-butyl)phenyl)-6-methoxy-2,2-dimethyl-2,3-dihydro-1H-inden-1-yl)carbamate] | 65
CC1(C)Cc2ccc(-c3ccccc3F)cc2C1NC(=O)O[C@@H]1CN2CCC1CC2 (stereo partly drawn) [Example 57, (S)-quinuclidin-3-yl (6-(2-fluorophenyl)-2,2-dimethyl-2,3-dihydro-1H-inden-1-yl)carbamate] | 49.9
Cc1ccc(F)c(-c2ccc3c(c2)CC(C)(C)C3NC(=O)O[C@@H]2CN3CCC2CC3)c1 (stereo partly drawn) [Example 211, (S)-quinuclidin-3-yl (5-(2-fluoro-5-methylphenyl)-2,2-dimethyl-2,3-dihydro-1H-inden-1-yl)carbamate] | 13.2
CC1(C)Cc2cc(-c3ccc(F)c(Cl)c3)ccc2C1NC(=O)O[C@@H]1CN2CCC1CC2 (stereo partly drawn) [Example 261, (S)-quinuclidin-3-yl (5-(3-chloro-4-fluorophenyl)-2,2-dimethyl-2,3-dihydro-1H-inden-1-yl)carbamate] | 51.5
O=C(NC1COc2cc(-c3cccc(OC(F)(F)F)c3)ccc21)O[C@@H]1CN2CCC1CC2 (stereo partly drawn) [Example 405, (S)-quinuclidin-3-yl (6-(3-(trifluoromethoxy)phenyl)-2,3-dihydrobenzofuran-3-yl)carbamate] | 44.7
CCOc1cc(-c2ccc3c(c2)CC(C)(C)C3NC(=O)O[C@@H]2CN3CCC2CC3)ccn1 (stereo partly drawn) [Example 263, (S)-quinuclidin-3-yl (5-(2-ethoxypyridin-4-yl)-2,2-dimethyl-2,3-dihydro-1H-inden-1-yl)carbamate] | 34.9
O=C(NC1CCc2cc(-c3ccc(F)cc3)ccc21)O[C@@H]1CN2CCC1CC2 (stereo partly drawn) [Example 1, (S)-quinuclidin-3-yl (5-(4-fluorophenyl)-2,3-dihydro-1H-inden-1-yl)carbamate] | 139
CC(C)Cc1ccc(-c2ccc3c(c2)CC(C)(C)C3NC(=O)O[C@@H]2CN3CCC2CC3)cc1 (stereo partly drawn) [Example 161, (S)-quinuclidin-3-yl (5-(4-isobutylphenyl)-2,2-dimethyl-2,3-dihydro-1H-inden-1-yl)carbamate] | 10.8

SMILES | IC50 [nM]
O=C(NC1CCc2cc(-c3ccc(C(F)(F)F)cc3)ccc21)O[C@@H]1CN2CCC1CC2 (stereo partly drawn) [Example 3, (S)-quinuclidin-3-yl (5-(4-(trifluoromethyl)phenyl)-2,3-dihydro-1H-inden-1-yl)carbamate] | 142
COCOc1cccc(-c2ccc3c(c2)CC2(CC2)C3NC(=O)O[C@@H]2CN3CCC2CC3)c1 (stereo partly drawn) [Example 398, (S)-quinuclidin-3-yl (5′-(3-(methoxymethoxy)phenyl)-1′,3′-dihydrospiro[cyclopropane-1,2′-inden]-1′-yl)carbamate] | 36.6
COc1ccc(-c2ccc3c(c2)CC(C)(C)C3NC(=O)O[C@@H]2CN3CCC2CC3)c(Cl)c1 (stereo partly drawn) [Example 123, (S)-quinuclidin-3-yl (5-(2-chloro-4-methoxyphenyl)-2,2-dimethyl-2,3-dihydro-1H-inden-1-yl)carbamate] | 9.3
Cc1ccc(-c2ccc3c(c2)CCC3NC(=O)O[C@@H]2CN3CCC2CC3)cc1 (stereo partly drawn) [Example 13, (S)-quinuclidin-3-yl (5-(p-tolyl)-2,3-dihydro-1H-inden-1-yl)carbamate] | 41.7
Cc1cc(C)cc(-c2ccc3c(c2)CC(C)(C)C3NC(=O)O[C@@H]2CN3CCC2CC3)c1 (stereo partly drawn) [Example 192, (S)-quinuclidin-3-yl (5-(3,5-dimethylphenyl)-2,2-dimethyl-2,3-dihydro-1H-inden-1-yl)carbamate] | 25.8
CC(C)Cc1ccc(-c2cc3c(cc2F)C(NC(=O)O[C@@H]2CN4CCC2CC4)C(C)(C)C3)cc1 (stereo partly drawn) [Example 352, (S)-quinuclidin-3-yl (6-fluoro-5-(4-isobutylphenyl)-2,2-dimethyl-2,3-dihydro-1H-inden-1-yl)carbamate] | 5.7
COc1ccccc1-c1ccc2c(c1)CC(C)(C)C2NC(=O)O[C@@H]1CN2CCC1CC2 (stereo partly drawn) [Example 176, (S)-quinuclidin-3-yl (5-(2-methoxyphenyl)-2,2-dimethyl-2,3-dihydro-1H-inden-1-yl)carbamate] | 27.6
COc1ccc(-c2cc3c(cc2F)C(NC(=O)O[C@@H]2CN4CCC2CC4)C(C)(C)C3)cc1OC (stereo partly drawn) [Example 385, (S)-quinuclidin-3-yl (5-(3,4-dimethoxyphenyl)-6-fluoro-2,2-dimethyl-2,3-dihydro-1H-inden-1-yl)carbamate] | 332
CC(C)c1ccc(-c2cc3c(cc2F)C(NC(=O)O[C@@H]2CN4CCC2CC4)C(C)(C)C3)cc1 (stereo partly drawn) [Example 351, (S)-quinuclidin-3-yl (6-fluoro-5-(4-isopropylphenyl)-2,2-dimethyl-2,3-dihydro-1H-inden-1-yl)carbamate] | 7.4
COc1ccc(OC)c(-c2cc3c(cc2OC)C(NC(=O)O[C@@H]2CN4CCC2CC4)C(C)(C)C3)c1 (stereo partly drawn) [Example 344, (S)-quinuclidin-3-yl (5-(2,5-dimethoxyphenyl)-6-methoxy-2,2-dimethyl-2,3-dihydro-1H-inden-1-yl)carbamate] | 51
CC1(C)Cc2cc(-c3cccc(C(F)(F)F)c3Cl)ccc2C1NC(=O)O[C@@H]1CN2CCC1CC2 (stereo partly drawn) [Example 182, (S)-quinuclidin-3-yl (5-(2-chloro-3-(trifluoromethyl)phenyl)-2,2-dimethyl-2,3-dihydro-1H-inden-1-yl)carbamate] | 20.9
COc1ccc(-c2cc3c(cc2F)C(NC(=O)O[C@@H]2CN4CCC2CC4)C(C)(C)C3)c(Cl)c1 (stereo partly drawn) [Example 386, (S)-quinuclidin-3-yl (5-(2-chloro-4-methoxyphenyl)-6-fluoro-2,2-dimethyl-2,3-dihydro-1H-inden-1-yl)carbamate] | 29.5
CC1(C)Oc2cc(-c3cccc(F)c3)ccc2C1NC(=O)O[C@@H]1CN2CCC1CC2 (stereo partly drawn) [Example 407, (S)-quinuclidin-3-yl (6-(3-fluorophenyl)-2,2-dimethyl-2,3-dihydrobenzofuran-3-yl)carbamate] | 44.4
CC(C)Oc1cccc(-c2cc3c(cc2F)C(NC(=O)O[C@@H]2CN4CCC2CC4)C(C)(C)C3)c1 (stereo partly drawn) [Example 378, (S)-quinuclidin-3-yl (6-fluoro-5-(3-isopropoxyphenyl)-2,2-dimethyl-2,3-dihydro-1H-inden-1-yl)carbamate] | 87.5
O=C(NC1CCc2cc(-c3cccc(Cl)c3)ccc21)O[C@@H]1CN2CCC1CC2 (stereo partly drawn) [Example 6, (S)-quinuclidin-3-yl (5-(3-chlorophenyl)-2,3-dihydro-1H-inden-1-yl)carbamate] | 39.4
CC1(C)Cc2cc(-c3cccc(OCCF)c3)ccc2C1NC(=O)O[C@@H]1CN2CCC1CC2 (stereo partly drawn) [Example 197, (S)-quinuclidin-3-yl (5-(3-(2-fluoroethoxy)phenyl)-2,2-dimethyl-2,3-dihydro-1H-inden-1-yl)carbamate] | 8.7
CC1(C)Cc2ccc(-c3ccc(C(F)(F)F)cc3)cc2C1NC(=O)O[C@@H]1CN2CCC1CC2 (stereo partly drawn) [Example 51, (S)-quinuclidin-3-yl (2,2-dimethyl-6-(4-(trifluoromethyl)phenyl)-2,3-dihydro-1H-inden-1-yl)carbamate] | 30.2
COc1ccc(-c2ccc3c(c2)CC(C)(C)C3NC(=O)O[C@@H]2CN3CCC2CC3)cc1Cl (stereo partly drawn) [Example 122, (S)-quinuclidin-3-yl (5-(3-chloro-4-methoxyphenyl)-2,2-dimethyl-2,3-dihydro-1H-inden-1-yl)carbamate] | 50.8

Source: patent publication US12522602B2, “Derivatives having 2,3-dihydro-1H-indene or 2,3-dihydrobenzofuran moiety or pharmaceutically acceptable salt thereof and pharmaceutical compositions comprising the same” (YUHAN CORPORATION, priority 2019, dated 2026)
